Where two headings read alike, the source gives them in different places.
Assays:
[1] = system: Male adult CD1 mice; experiment: Experimental thrombosis model test (surgical stasis of femoral vasculature); assay type: in vivo; details: 25 mg kg−1 single i.p.; thrombosis induced after 24 h
Description: Antithrombic activity may be assessed using one or more in vivo (e.g., experimental thrombosis model) assays. For example, after thrombus induction, femoral segments may be removed, fixed, and stained. These segments may be then scored by a pathologist in a double blind manner. Quantitative measurement may be obtained by computerized plannimetry, reaching a quantitative morphological description of structures at the two-dimensional level. Image analysis may be performed using ImageJ software. Minimal occlusion (0.2%) may be observed in controls arteries and test specimens may display thrombus occlusion 40% of the vascular light.
All in vivo experiments were conducted in accordance with the Mexican National Protection Laws on Animal Protection and the General Health Law Related to Health Research (NOM-062-Z00-1999). All procedures were approved by an ethics committee. Male adult CD1 mice weighing 25-35 g were used (obtained from the Animal Care Unit from Facultad de Medicina, UNAM). […]
Additionally, an experimental thrombosis model test was performed by subjecting mice to an acute ischemic challenge. […] 4 μm thick sections were stained with Masson's trichrome and hematoxylin-eosin, and scored by a pathologist for the percentage of thrombus induction based on the occlusion of vascular light.

[2] = system: Male adult CD1 mice; experiment: Blood clotting time test in mice; assay type: in vivo
Method: All in vivo experiments were conducted in accordance with the Mexican National Protection Laws on Animal Protection and the General Health Law Related to Health Research (NOM-062-Z00-1999). All procedures were approved by an ethics committee. Male adult CD1 mice weighing 25-35 g were used (obtained from the Animal Care Unit from Facultad de Medicina, UNAM).
Animals were distributed among groups according to a balanced design based on body weight (3 animals per group in each experiment). Room temperature was kept constant (21-24° C.), and with light-dark cycles of 12 h. Food and water were given ad libitum. Persenone-A was dissolved in DMSO (vehicle) and administered intraperitoneally (i.p.). Control animals only received the vehicle (1.66 mL kg−1).
In a blood clotting time test groups of animals received a single i.p. administration of Persenone A (1, 10 or 100 mg kg^−1 of body weight, respectively) or vehicle. Blood clotting time was measured 24 h after administration, as described in R. Jaimez, A. Cooney, K. Jackson, A. E. Lemus, C. […] Time was counted from the instant that blood first made contact with the glass capillary tube and until the blood ceased to flow. […]
The data shown in FIG. 4 is representative of at least three independent experiments. Results were expressed as means±SEM. […]

[3] = system: platelets (human platelet-rich plasma); experiment: Platelet aggregation assay (turbidimetric, platelet-rich plasma) induced by collagen, ADP or arachidonic acid; assay type: cell-based
Description: Antiplatelet activity may be assessed using one or more in vitro (e.g., platelet aggregation) and/or in vivo (e.g., blood clotting time) assays. Antiplatelet activity may be assessed, for example, using a light transmittance aggregometry test based on the stimulation of platelet-platelet aggregation in platelet-rich plasma after stimulation with various agonists (e.g., ADP, α Arachidonic acid, collagen etc). This test has been the most widely used technique to monitor the effects of antiplatelet agents. Agonists and their concentration may be used to produce full aggregation. Under this condition, acetogenins may inhibit aggregation induced by any agonist; their half maximal inhibitory concentration (IC50) value may vary by the agonist used. Percent aggregation inhibition values may be calculated using the following equation: % Inhibition=(Maximal aggregation vehicle control−Maximal aggregation acetogenins)/Maximal aggregation vehicle control×100%. Under a dose-dependent antiplatelet activity, IC50 may represent the concentration of acetogenins required for 50% inhibition of stimulation of platelet aggregation. […]
To confirm the contribution of the isolated acetogenin compounds to antiplatelet activity, their individual activity was evaluated at different concentrations (0.15-15 mM). Aggregation was induced by different agonists that included collagen (5 μg mL−1), ADP (20 μM) and arachidonic acid (500 μM) in an approximation to explore the potential interference of acetogenins with the binding of a particular agonist to its cell surface receptor.
The platelet aggregation (induced by ADP, collagen and arachidonic acid) inhibitory activity of the purified molecules was evaluated was conducted in accordance with the Helsinki Declaration using human blood donated to the blood bank of Instituto Nacional de Cardiología Ignacio Chávez. Blood samples were taken from healthy volunteers who had not taken any medications for at least 2 weeks, or ingested any alcohol for at least 24 h prior to sample collection. Blood was collected by venipuncture into Vacutainer (BD Diagnostics, Plymouth, UK) tubes containing 3.8% sodium citrate as an anticoagulant (at a 9:1 ratio, v/v). Platelet-rich plasma (PRP) and platelet-poor plasma (PPP) were obtained as earlier reported by A. De la Peña, G. Baños, R. Izaguirre, J. J. Mandoki and J. M. Fernández, Comparative effect of synthetic aminoestrogens with estradiol on platelet aggregation, Steroids, 1993, 58(9), 407-409. The assays were carried out within 2 h after the blood had been drawn.
Evaluation of platelet aggregation was performed by turbidimetric measurements according to S. S. Falkenberg, I. Tarnow, A. Guzman, P. Molgaard and H. T. Simonsen, Mapuche herbal medicine inhibits blood platelet aggregation, Evid. Based Complement. Alternat. Med., 2012, 2012, 647620, with some modifications. PRP adjusted with PPP to a platelet count of 2.5×108 mL^−1 (215 μL) was pre-incubated at 37° C. for 10 min with the evaluated sample (10 μL) and at various concentrations.
Platelet aggregation was initiated by the addition of 25 μL of the platelet agonist. The final concentrations of agonists in the reaction mixture were 20 μM ADP, 500 μM arachidonic acid or 5 μg mL^−1 collagen, all obtained from Chrono-PAR. Corporation (Havertown, Pa., USA). Aggregation response was recorded for 10 min using a Chrono-log Model 700 Whole Blood/Optical Lumi-Aggregometer (Chrono-Log, Havertown, Pa., USA). Maximal aggregation (MA) observed for samples containing avocado extracts, at different degrees of purification, was compared to those of vehicle controls (DMSO 2 M) evaluated under the same experimental conditions. Percent aggregation inhibitions, for all samples, were calculated using the following equation: % Inhibition=(MA vehicle control−MA extract)/MA vehicle control×100%. […]

[4] = Homo sapiens, Platelet, ADP 20 μM, read-out: Half-maximal inhibition concentration (IC50), ADP-induced platelet aggregation
[5] = Homo sapiens, Platelet, Arachidonic acid 500 μM, read-out: Half-maximal inhibition concentration (IC50), arachidonic acid-induced platelet aggregation
[6] = Homo sapiens, Platelet, Collagen 5 μg mL−1, read-out: Half-maximal inhibition concentration (IC50), collagen-induced platelet aggregation

| Structure (SMILES) | EC50 of blood clotting time ([2]; single i.p., 24 h after administration) | IC50 [3, 4] | IC50 [3, 5] | IC50 [3, 6] | IC50 ([3]; Collagen 5 μg mL−1, read-out: Half-maximal inhibition concentration (IC50), collagen-induced platelet aggregation) | IC50 ([3]; Homo sapiens, Platelet, arachidonic acid-induced, read-out: IC50, arachidonic acid-induced platelet aggregation (as printed in text)) | IC50 for arachidonic acid-induced aggregation, fold lower than for ADP-induced aggregation ([3]; arachidonic acid vs ADP) | decrease in luminal occlusion compared to the stasis group [1] | increase in blood clotting time ([2]; 100 mg kg−1 single i.p., measured 24 h after administration, relative to vehicle) | inhibition at 15000 µM ([3]; Homo sapiens, Platelet, 15 mM, arachidonic acid, read-out: inhibition of arachidonic acid-induced platelet aggregation at the highest concentration) | inhibition of collagen-induced aggregation (in words) ([3]; collagen-induced) | inhibition of platelet aggregation (in words) ([3]; any of the evaluated concentrations (0.15-15 mM)) | inhibitory concentration, fold higher than Persenone-C ([3]; all three agonists (collagen, ADP, arachidonic acid)) |
| --- | --- | --- | --- | --- | --- | --- | --- | --- | --- | --- | --- | --- | --- |
| C=C/C=C/CCCCCCCCCCCC(=O)CC(O)COC(C)=O (stereo not shown) [Acetogenin 2, Persediene] | – | > 15 mM | > 15 mM | 12 ± 1.24 mM | – | – | – | – | – | – | inhibited collagen-induced aggregation | – | – |
| CCCCC/C=C\C/C=C\CCCCCCCC(=O)CC(O)COC(C)=O (stereo not shown) [Acetogenin 6, Persin] | – | > 15 mM | > 15 mM | > 15 mM | – | – | – | – | – | – | – | did not inhibit platelet aggregation | – |
| C=CCCCCCCCCCCC[C@H](O)C[C@H](O)COC(C)=O [Acetogenin 1, (2S,4S)-1-acetoxy-2,4-dihydroxy-n-heptadeca-16-ene] | – | 7.29 ± 1.21 mM | 13.4 ± 1.26 mM | 8.18 mM | – | – | – | – | – | – | – | – | > 1.5 fold |

Further compounds by falling IC50 [3, 4], results first:

| EC50 of blood clotting time ([2]; single i.p., 24 h after administration) | IC50 [3, 4] | IC50 [3, 5] | IC50 [3, 6] | IC50 ([3]; Collagen 5 μg mL−1, read-out: Half-maximal inhibition concentration (IC50), collagen-induced platelet aggregation) | IC50 ([3]; Homo sapiens, Platelet, arachidonic acid-induced, read-out: IC50, arachidonic acid-induced platelet aggregation (as printed in text)) | IC50 for arachidonic acid-induced aggregation, fold lower than for ADP-induced aggregation ([3]; arachidonic acid vs ADP) | Structure (SMILES) | decrease in luminal occlusion compared to the stasis group [1] | increase in blood clotting time ([2]; 100 mg kg−1 single i.p., measured 24 h after administration, relative to vehicle) | inhibition at 15000 µM ([3]; Homo sapiens, Platelet, 15 mM, arachidonic acid, read-out: inhibition of arachidonic acid-induced platelet aggregation at the highest concentration) | inhibition of collagen-induced aggregation (in words) ([3]; collagen-induced) | inhibition of platelet aggregation (in words) ([3]; any of the evaluated concentrations (0.15-15 mM)) | inhibitory concentration, fold higher than Persenone-C ([3]; all three agonists (collagen, ADP, arachidonic acid)) |
| --- | --- | --- | --- | --- | --- | --- | --- | --- | --- | --- | --- | --- | --- |
| 24.8±1.7 mg kg^−1 of body weight | 13.5 ± 1.41 mM | > 15 mM | 8.73 ± 1.25 mM | – | – | – | CCCCC/C=C\C/C=C\CCCCC/C=C/C(=O)CC(O)COC(C)=O (stereo not shown) [Acetogenin 4, Persenone-A] | 71% | 2 fold | < 50% | – | – | – |
| – | 5.22 ± 1.19 mM | 7.4 ± 1.2 mM | 3.42 ± 1.56 mM | 5.23 ± 1.19 mM | – | – | CC/C=C/CCCCCCCCC/C=C/C(=O)CC(O)COC(C)=O (stereo not shown) [Acetogenin 3, Persenone-C] | – | – | – | – | – | – |
| – | 3.65 ± 0.07 mM | 0.07 ± 0.01 mM | 0.38 ± 0.07 mM | – | 0.07 ± 0.01 mM | 50 fold | CC(=O)Oc1ccccc1C(=O)O [Aspirin, acetylysalicylic acid, reference compound] | – | – | – | – | – | – |
